Assay results published in EP0745597A2, “Novel melatonergic indanyl piperazines or homopiperazines” (BRISTOL-MYERS SQUIBB COMPANY, priority 1995, dated 1996).
“And” between values parts separate entries of the source, which are not always exact repeats. Equal entries are not always repeated.

molecular target: T1, human ML1B receptor (Homo sapiens, UniProt P49286); assay: Measurement of binding to melatonergic receptors (2-[125I]-iodomelatonin, membranes of transfected NIH 3T3 cells); settings: 2-[125I]-Iodomelatonin 200 pM, 37 °C for 1 hour, NIH 3T3 cells stably transfected with the human ML1B receptor; read-out: Melatonin Binding
T1 construct: host or cells: NIH 3T3 cells, stably transfected; membrane homogenates
T1 sequence (P49286 1-362): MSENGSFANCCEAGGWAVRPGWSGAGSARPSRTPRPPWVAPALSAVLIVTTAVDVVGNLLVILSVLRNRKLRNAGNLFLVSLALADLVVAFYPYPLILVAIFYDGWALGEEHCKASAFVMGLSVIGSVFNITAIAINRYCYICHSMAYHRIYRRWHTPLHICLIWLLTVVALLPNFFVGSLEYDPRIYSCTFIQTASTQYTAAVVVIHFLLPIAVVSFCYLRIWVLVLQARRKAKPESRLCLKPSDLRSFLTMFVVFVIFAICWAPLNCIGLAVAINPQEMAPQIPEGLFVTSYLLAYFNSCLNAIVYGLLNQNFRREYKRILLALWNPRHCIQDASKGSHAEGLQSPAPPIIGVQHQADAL
Method: The melatonergic binding affinities of various compounds of Formula I were determined by the method of Reppert, S. M., Weaver, D. R., and Ebisawa, R. (Neuron, Volume 13, 1177-1185, 1994). The assays were incubated at 37 °C for 1 hour, and the reaction was terminated by filtration. The filters were washed with wash buffer. […] The reagents, membrane and other techniques used in the melatonergic binding assays are more fully described below: • 1. Reagents: • (a) 50 mM Tris buffer containing 12.5 mM MgCl2, and 2mM EDTA, pH 7.4 at 37 °C. • (b) Wash buffer: 20 mM Tris base containing 2 mM MgCl2. pH 7.4 at room temperature. • (c) Melatonin (10^-5 M final concentration). • (d) 2-[^125I]-Iodomelatonin, 200 pM final concentration Source: NEN • 2. Membrane preparation: NIH 3T3 cells stably transfected with the human ML1B receptor were obtained from S.M. Reppert and maintained. Cells were pelleted when confluent. The supernatant was discarded and the pellets frozen. For preparing membrane homogenates, the pellets are thawed on ice and resuspended in TME buffer, Tris base, MgCl2, EDTA (pH 7.4 at 37 °C ), supplemented with aprotinin, leupeptin, and […]. The cells were then homogenized and centrifuged. The resulting pellet was resuspended with a Dounce homogenizer in TME and frozen. At assay, a small aliquot was thawed on ice and resuspended in TME buffer. […] These compounds are considered active.

SMILES	IC50
COc1ccc2c(c1)C(N1CCN(C(C)=O)CC1)CC2 (stereo not drawn) [1-Acetyl-4-(6-methoxy-indan-1-yl)piperazine]	0.1 to 0.25 µM
CCc1ccc2c(c1)C(N1CCN(C(=O)C(C)C)CC1)CC2 (stereo not drawn) [4-(6-Ethyl-indan-1-yl)-1-(2-methylpropanoyl)piperazine]	0.1 to 0.25 µM
COc1ccc2c(c1)C(N1CCN(C(=O)C(C)C)CC1)CC2 (stereo not drawn) [4-(6-Methoxy-indan-1-yl)-1-(2-methyl-propanoyl)piperazine]	< 0.01 µM and 0.1 to 0.25 µM
CC(=O)NCCc1c(Cc2ccccc2)[nH]c2ccccc12 [Luzindole, reference compound]	0.1 to 0.25 µM
COc1ccc2c(c1)C(N1CCN(C(=O)NC(C)C)CC1)CC2 (stereo not drawn) [N-(1-Methylethyl)-4-(6-methoxy-indan-1-yl)piperazine-1-carboxamide]	0.01 to 0.1 µM
CCCNC(=O)N1CCN(C2CCc3ccc(OC)cc32)CC1 (stereo not drawn) [N-(n-Propyl)-4-(6-methoxy-indan-1-yl)piperazine-1-carboxamide]	0.01 to 0.1 µM
CCNC(=O)N1CCN(C2CCc3cc(F)c(OC)cc32)CC1 (stereo not drawn) [N-Ethyl-4-(5-fluoro-6-methoxy-indan-1-yl)piperazine-1-carboxamide]	0.01 to 0.1 µM
CCNC(=O)N1CCN(C2CCc3ccc(OCC)cc32)CC1 (stereo not drawn) [N-Ethyl-4-(6-ethoxy-indan-1-yl)piperazine-1-carboxamide]	0.01 to 0.1 µM
CCNC(=O)N1CCCN(C2CCc3ccc(OC)cc32)CC1 (stereo not drawn) [N-Ethyl-4-(6-methoxy-indan-1-yl)homopiperazine-1-carboxamide]	0.01 to 0.1 µM
CCNC(=O)N1CCN(C2CCc3ccc(OC)cc32)CC1 (stereo not drawn) [N-Ethyl-4-(6-methoxy-indan-1-yl)piperazine-1-carboxamide]	0.01 to 0.1 µM
CCCCCCCCCOc1ccc2c(c1)C(N1CCN(C(=O)NCC)CC1)CC2 (stereo not drawn) [N-Ethyl-4-(6-nonyloxy-indan-1-yl)piperazine-1-carboxamide]	0.01 to 0.1 µM
CCCOc1ccc2c(c1)C(N1CCN(C(=O)NCC)CC1)CC2 (stereo not drawn) [N-Ethyl-4-(6-propyloxy-indan-1-yl)piperazine-1-carboxamide]	0.01 to 0.1 µM
CCNC(=O)N1CCN(C2CCCc3ccc(OC)cc32)CC1 (stereo not drawn) [N-Ethyl-4-(7-methoxy-tetralin-1-yl)piperazine-1-carboxamide]	0.1 to 0.25 µM
CNC(=O)N1CCN(C2CCc3cc(F)c(OC)cc32)CC1 (stereo not drawn) [N-Methyl-4-(5-fluoro-6-methoxy-indan-1-yl)piperazine-1-carboxamide]	0.01 to 0.1 µM
CNC(=O)N1CCN(C2CCCc3ccc(OC)cc32)CC1 (stereo not drawn) [N-Methyl-4-(7-methoxy-tetralin-1-yl)piperazine-1-carboxamide]	0.01 to 0.1 µM

Further lines, results first:

IC50	SMILES
0.01 to 0.1 µM	COc1ccc2c(c1)C(N1CCN(C(C)=O)CC1)CCC2 (stereo not drawn) [1-Acetyl-4-(7-methoxy-tetralin-1-yl)piperazine]
< 0.01 µM	CCCC(=O)N1CCN(C2CCc3ccc(OC)cc32)CC1 (stereo not drawn) [1-Butanoyl-4-(6-methoxy-indan-1-yl)piperazine]
< 0.01 µM	C=C(C)C(=O)N1CCN(C2CCc3ccc(OC)cc32)CC1 (stereo not drawn) [1-[(1-Methyl-ethenyl)carbonyl]-4-(6-methoxy-indan-1-yl)piperazine]
< 0.01 µM	COc1ccc2c(c1)C(N1CCN(C(=O)c3ccco3)CC1)CC2 (stereo not drawn) [1-[(2-Furanyl)carbonyl]-4-(6-methoxy-indan-1-yl)piperazine]
0.01 to 0.1 µM	COc1cc2c(cc1F)CCC2N1CCN(C(=O)C(C)C)CC1 (stereo not drawn) [4-(5-Fluoro-6-methoxy-indan-1-yl)-1-(2-methylpropanoyl)piperazine]
0.01 to 0.1 µM	CCC(C)C(=O)N1CCN(C2CCc3ccc(OC)cc32)CC1 (stereo not drawn) [4-(6-Methoxy-indan-1-yl)-1-(2-methyl-butanoyl)piperazine]
0.01 to 0.1 µM	COc1ccc2c(c1)C(N1CCCN(C(=O)C(C)C)CC1)CC2 (stereo not drawn) [4-(6-Methoxy-indan-1-yl)-1-(2-methyl-propanoyl)homopiperazine]
< 0.01 µM	COc1ccc2c(c1)C(N1CCN(C(=O)c3cccs3)CC1)CC2 (stereo not drawn) [4-(6-Methoxy-indan-1-yl)-1-[(2-thienyl)carbonyl]piperazine]
0.01 to 0.1 µM	CCC(=O)N1CCN(C2CCc3ccc(OC)cc32)CC1 (stereo not drawn) [4-(6-Methoxy-indan-1-yl)-1-propanoylpiperazine]
0.01 to 0.1 µM	COc1ccc2c(c1)C(N1CCN(C(=O)N(C)C)CC1)CC2 (stereo not drawn) [N,N-Dimethyl-4-(6-methoxy-indan-1-yl)piperazine-1-carboxamide]
< 0.01 µM	COc1ccc2c(c1)C(N1CCN(C(=O)NC3CC3)CC1)CC2 (stereo not drawn) [N-Cyclopropyl-4-(6-methoxy-indan-1-yl)piperazine-1-carboxamide]
< 0.01 µM	CNC(=O)N1CCN(C2CCc3ccc(OC)cc32)CC1 (stereo not drawn) [N-Methyl-4-(6-methoxy-indan-1-yl)piperazine-1-carboxamide]
